Test results published in patent US10251395B2, “Substituted furano-/thienocycloalkylamino-2-pyrimidine derivatives and use thereof for controlling undesired plant growth” (Bayer CropScience Aktiengesellschaft, priority 2015, dated 2019).

Columns and labels:
Abutilon theophrasti [1] = assay: Pre-emergence herbicidal effect; assay type: in vivo; conditions: Dosage 320 g/ha, scored visually after 3 weeks
How it was run: (§1)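 Herbicidal activity (%) is a visual rating made 3 weeks after treatment by comparison with untreated controls, where 0% equals control plants and 100% means the plants died. Application went onto the soil covering sown seeds before emergence.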

Alopecurus myosuroides [2] = assay: Pre-emergence herbicidal effect; assay type: in vivo; conditions: scored visually after 3 weeks
How it was run: as §1

Amaranthus retroflexus [3] = assay: Pre-emergence herbicidal effect; assay type: in vivo; conditions: scored visually after 3 weeks
How it was run: as §1

Lolium multiflorum [4] = assay: Pre-emergence herbicidal effect; assay type: in vivo; conditions: scored visually after 3 weeks
How it was run: as §1

Matricaria inodora [5] = assay: Pre-emergence herbicidal effect; assay type: in vivo; conditions: scored visually after 3 weeks
How it was run: as §1

Polygonum convolvulus [6] = assay: Pre-emergence herbicidal effect; assay type: in vivo; conditions: scored visually after 3 weeks
How it was run: as §1

Setaria viridis [7] = assay: Pre-emergence herbicidal effect; assay type: in vivo; conditions: scored visually after 3 weeks
How it was run: as §1

Stellaria media [8] = assay: Pre-emergence herbicidal effect; assay type: in vivo; conditions: scored visually after 3 weeks
How it was run: as §1

Veronica persica [9] = assay: Pre-emergence herbicidal effect; assay type: in vivo; conditions: scored visually after 3 weeks
How it was run: as §1

Viola tricolor [10] = assay: Pre-emergence herbicidal effect; assay type: in vivo; conditions: scored visually after 3 weeks
How it was run: as §1

Alopecurus myosuroides [11] = assay: Post-emergence herbicidal effect; assay type: in vivo; conditions: 320 g/ha, assessed visually after about 3 weeks vs untreated controls
How it was run: (§2)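 Visual % damage vs untreated plants, ~3 wk after spraying (100% = dead, 0% = as control). Post-emergence foliar spray at one-leaf stage; WP/EC in water, 600–800 L/ha + 0.2% wetting agent; sandy loam, greenhouse.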

Viola tricolor [12] = assay: Post-emergence herbicidal effect; assay type: in vivo; conditions: assessed visually after about 3 weeks vs untreated controls
How it was run: as §2

Echinochloa crus-galli [13] = assay: Pre-emergence herbicidal effect; assay type: in vivo; conditions: Dosage 320 g/ha, scored visually after 3 weeks
How it was run: as §1

Abutilon theophrasti [14] = assay: Post-emergence herbicidal effect; assay type: in vivo; conditions: assessed visually after about 3 weeks vs untreated controls
How it was run: as §2

Amaranthus retroflexus [15] = assay: Post-emergence herbicidal effect; assay type: in vivo; conditions: assessed visually after about 3 weeks vs untreated controls
How it was run: as §2

Echinochloa crus-galli [16] = assay: Post-emergence herbicidal effect; assay type: in vivo; conditions: 320 g/ha, assessed visually after about 3 weeks vs untreated controls
How it was run: as §2

Stellaria media [17] = assay: Post-emergence herbicidal effect; assay type: in vivo; conditions: assessed visually after about 3 weeks vs untreated controls
How it was run: as §2

Veronica persica [18] = assay: Post-emergence herbicidal effect; assay type: in vivo; conditions: 320 g/ha, assessed visually after about 3 weeks vs untreated controls
How it was run: as §2

logP (HCOOH) = assay type: physicochemical; conditions: HCOOH
Text: Table 2 (physicochemical characterization of selected synthesis examples)

Avena fatua = assay: Pre-emergence herbicidal effect; assay type: in vivo; conditions: Dosage 320 g/ha, scored visually after 3 weeks
How it was run: as §1

Ipomoea purpurea = assay: Post-emergence herbicidal effect; assay type: in vivo; conditions: assessed visually after about 3 weeks vs untreated controls
How it was run: as §2

Lolium multiflorum [19] = assay: Post-emergence herbicidal effect; assay type: in vivo; conditions: 320 g/ha, assessed visually after about 3 weeks vs untreated controls
How it was run: as §2

Matricaria inodora [20] = assay: Post-emergence herbicidal effect; assay type: in vivo; conditions: assessed visually after about 3 weeks vs untreated controls
How it was run: as §2

Polygonum convolvulus [21] = assay: Post-emergence herbicidal effect; assay type: in vivo; conditions: assessed visually after about 3 weeks vs untreated controls
How it was run: as §2

Setaria viridis [22] = assay: Post-emergence herbicidal effect; assay type: in vivo; conditions: 320 g/ha, assessed visually after about 3 weeks vs untreated controls
How it was run: as §2

Row | Structure (SMILES) | ABUTH pre-emergence efficacy (herbicidal activity) (Abutilon theophrasti [1]) [%] | ALOMY pre-emergence efficacy (herbicidal activity) (Alopecurus myosuroides [2]; Dosage 320 g/ha) [%] | AMARE pre-emergence efficacy (herbicidal activity) (Amaranthus retroflexus [3]; Dosage 80 g/ha) [%] | AMARE pre-emergence efficacy (herbicidal activity) (Amaranthus retroflexus [3]; Dosage 320 g/ha) [%] | LOLMU pre-emergence efficacy (herbicidal activity) (Lolium multiflorum [4]; Dosage 320 g/ha) [%] | MATIN pre-emergence efficacy (herbicidal activity) (Matricaria inodora [5]; Dosage 80 g/ha) [%] | MATIN pre-emergence efficacy (herbicidal activity) (Matricaria inodora [5]; Dosage 320 g/ha) [%] | POLCO pre-emergence efficacy (herbicidal activity) (Polygonum convolvulus [6]; Dosage 320 g/ha) [%] | SETVI pre-emergence efficacy (herbicidal activity) (Setaria viridis [7]; Dosage 320 g/ha) [%] | STEME pre-emergence efficacy (herbicidal activity) (Stellaria media [8]; Dosage 80 g/ha) [%] | STEME pre-emergence efficacy (herbicidal activity) (Stellaria media [8]; Dosage 320 g/ha) [%] | VERPE pre-emergence efficacy (herbicidal activity) (Veronica persica [9]; Dosage 80 g/ha) [%] | VERPE pre-emergence efficacy (herbicidal activity) (Veronica persica [9]; Dosage 320 g/ha) [%] | VIOTR pre-emergence efficacy (herbicidal activity) (Viola tricolor [10]; Dosage 80 g/ha) [%] | VIOTR pre-emergence efficacy (herbicidal activity) (Viola tricolor [10]; Dosage 320 g/ha) [%] | post-emergence efficacy ALOMY (Alopecurus myosuroides [11]) [%] | post-emergence efficacy VIOTR (Viola tricolor [12]; 320 g/ha) [%] | ECHCG pre-emergence efficacy (herbicidal activity) (Echinochloa crus-galli [13]) [%] | post-emergence efficacy ABUTH (Abutilon theophrasti [14]; 320 g/ha) [%] | post-emergence efficacy AMARE (Amaranthus retroflexus [15]; 80 g/ha) [%] | further results
1 | Cc1cc2c(o1)CCCC2Nc1ncc(C(F)(F)F)c(N)n1 (racemic) [compound 28] | 80 | 90 | 100 | 100 | 100 | 90 | 100 | 100 | 100 | 100 | 100 | 100 | 100 | 90 | 100 | 100 | 90 |  |  |  | 
2 | CS(=O)(=O)c1cnc(NC2CCCc3ccsc32)nc1N (racemic) [compound 69] | 100 | 80 | 100 | 100 | 100 | 100 | 100 | 100 | 100 | 100 | 100 | 100 | 100 | 100 | 100 | 80 | 100 | 100 | 80 | 20 | post-emergence efficacy AMARE (Amaranthus retroflexus [15]; 320 g/ha): 90%; post-emergence efficacy ECHCG (Echinochloa crus-galli [16]): 80%; post-emergence efficacy STEME (Stellaria media [17]; 320 g/ha): 90%; post-emergence efficacy VERPE (Veronica persica [18]): 80%; post-emergence efficacy VIOTR (Viola tricolor [12]; 80 g/ha): 80%; logP (HCOOH) (logP (HCOOH)): solid; m.p.: 129.9° C.; logP (HCOOH): 1.86; 1H NMR (CDCl3, 400 MHZ, δ in ppm): ):
3 | C/C(=N\O)c1cnc(NC2CCCc3sc(Cl)cc32)nc1C (racemic) [compound 260] |  | 90 | 100 | 100 | 100 | 100 | 100 | 100 | 100 | 100 | 100 | 100 | 100 | 100 | 100 |  | 90 | 100 | 90 | 90 | ALOMY pre-emergence efficacy (herbicidal activity) (Alopecurus myosuroides [2]; Dosage 80 g/ha): 70%; AVEFA pre-emergence efficacy (herbicidal activity) (Avena fatua): 90%; LOLMU pre-emergence efficacy (herbicidal activity) (Lolium multiflorum [4]; Dosage 80 g/ha): 50%; POLCO pre-emergence efficacy (herbicidal activity) (Polygonum convolvulus [6]; Dosage 80 g/ha): 80%; SETVI pre-emergence efficacy (herbicidal activity) (Setaria viridis [7]; Dosage 80 g/ha): 50%; post-emergence efficacy ABUTH (Abutilon theophrasti [14]; 80 g/ha): 80%; post-emergence efficacy AMARE (Amaranthus retroflexus [15]; 320 g/ha): 90%; post-emergence efficacy ECHCG (Echinochloa crus-galli [16]): 100%; post-emergence efficacy PHBPU (Ipomoea purpurea; 80 g/ha): 70%; post-emergence efficacy PHBPU (Ipomoea purpurea; 320 g/ha): 90%; post-emergence efficacy LOLMU (Lolium multiflorum [19]): 70%; post-emergence efficacy MATIN (Matricaria inodora [20]; 80 g/ha): 70%; post-emergence efficacy MATIN (Matricaria inodora [20]; 320 g/ha): 90%; post-emergence efficacy POLCO (Polygonum convolvulus [21]; 80 g/ha): 60%; post-emergence efficacy POLCO (Polygonum convolvulus [21]; 320 g/ha): 60%; post-emergence efficacy SETVI (Setaria viridis [22]): 100%; post-emergence efficacy STEME (Stellaria media [17]; 80 g/ha): 80%; post-emergence efficacy STEME (Stellaria media [17]; 320 g/ha): 100%; post-emergence efficacy VERPE (Veronica persica [18]): 100%; post-emergence efficacy VIOTR (Viola tricolor [12]; 80 g/ha): 70%
